PMC10700596 (Nature Communications, 2023)
Values joined by “and” are separate entries in the source; they are usually repeats but may differ in a detail not shown here. Identical values can stand only once.

What was measured:
in vivo = type: in vivo, mice; details: mice, IP 10 mg/kg, individual animals, listed as 7827_0016, 10 mg/kg
LKB1 = LKB1 (Homo sapiens, UniProt Q15831); test: biochemical; type: binding; details: 10000 nM; read-out: Percent Control
Source text: (§1) Source data are provided as a Source Data file.

MAPKAPK2 = MAPKAPK2 (Homo sapiens, UniProt P49137); test: biochemical; type: binding; details: 10000 nM; read-out: Percent Control
Source text: as §1

MEK1 = MEK1 (Homo sapiens, UniProt Q02750); test: biochemical; type: binding; details: 10000 nM; read-out: Percent Control
Source text: as §1

MLK1 = MLK1 (Homo sapiens, UniProt P80192); test: biochemical; type: binding; details: 10000 nM; read-out: Percent Control
Source text: as §1

PAK1 = PAK1 (Homo sapiens, UniProt Q13153); test: biochemical; type: binding; details: 10000 nM; read-out: Percent Control
Source text: as §1

PAK2 = PAK2 (Homo sapiens, UniProt Q13177); test: biochemical; type: binding; details: 10000 nM; read-out: Percent Control
Source text: as §1

PAK4 = PAK4 (Homo sapiens, UniProt O96013); test: biochemical; type: binding; details: 10000 nM; read-out: Percent Control
Source text: as §1

PKAC-alpha = PKAC-alpha (Homo sapiens, UniProt P17612); test: biochemical; type: binding; details: 10000 nM; read-out: Percent Control
Source text: as §1

PLK3 = PLK3 (Homo sapiens, UniProt Q9H4B4); test: biochemical; type: binding; details: 10000 nM; read-out: Percent Control
Source text: as §1

PLK4 = PLK4 (Homo sapiens, UniProt O00444); test: biochemical; type: binding; details: 10000 nM; read-out: Percent Control
Source text: as §1

RAF1 = RAF1 (Homo sapiens, UniProt P04049); test: biochemical; type: binding; details: 10000 nM; read-out: Percent Control
Source text: as §1

JNK3 = JNK3 (Homo sapiens, UniProt P53779); test: biochemical; type: binding; details: 10000 nM; read-out: Percent Control
[1] = target: T1, RSK2(Kin.Dom.1-N-terminal) (Homo sapiens, UniProt P51812); test: KINOMEscan; type: binding
T1 construct: RSK2(Kin.Dom.1-N-terminal); purchased Eurofins DiscoverX KINOMEscan (scanEDGE, 97 kinases)

SNARK = SNARK (Homo sapiens, UniProt Q9H093); test: biochemical; type: binding; details: 10000 nM; read-out: Percent Control
TIE2 = TIE2 (Homo sapiens, UniProt Q02763); test: biochemical; type: binding; details: 10000 nM; read-out: Percent Control

T1 sequence (P51812 1-397 limits assumed): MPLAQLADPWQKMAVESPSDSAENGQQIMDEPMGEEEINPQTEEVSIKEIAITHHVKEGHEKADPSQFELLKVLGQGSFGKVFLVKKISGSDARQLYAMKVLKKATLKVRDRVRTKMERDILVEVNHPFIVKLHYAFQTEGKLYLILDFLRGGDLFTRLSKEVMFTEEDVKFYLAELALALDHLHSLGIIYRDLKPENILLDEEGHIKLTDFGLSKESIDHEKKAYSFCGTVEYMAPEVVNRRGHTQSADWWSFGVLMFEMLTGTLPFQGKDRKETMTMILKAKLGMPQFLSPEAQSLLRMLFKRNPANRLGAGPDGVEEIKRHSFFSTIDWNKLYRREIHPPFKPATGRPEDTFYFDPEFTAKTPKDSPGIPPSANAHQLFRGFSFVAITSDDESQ
Sequence of PLK3 (Q9H4B4 whole entry): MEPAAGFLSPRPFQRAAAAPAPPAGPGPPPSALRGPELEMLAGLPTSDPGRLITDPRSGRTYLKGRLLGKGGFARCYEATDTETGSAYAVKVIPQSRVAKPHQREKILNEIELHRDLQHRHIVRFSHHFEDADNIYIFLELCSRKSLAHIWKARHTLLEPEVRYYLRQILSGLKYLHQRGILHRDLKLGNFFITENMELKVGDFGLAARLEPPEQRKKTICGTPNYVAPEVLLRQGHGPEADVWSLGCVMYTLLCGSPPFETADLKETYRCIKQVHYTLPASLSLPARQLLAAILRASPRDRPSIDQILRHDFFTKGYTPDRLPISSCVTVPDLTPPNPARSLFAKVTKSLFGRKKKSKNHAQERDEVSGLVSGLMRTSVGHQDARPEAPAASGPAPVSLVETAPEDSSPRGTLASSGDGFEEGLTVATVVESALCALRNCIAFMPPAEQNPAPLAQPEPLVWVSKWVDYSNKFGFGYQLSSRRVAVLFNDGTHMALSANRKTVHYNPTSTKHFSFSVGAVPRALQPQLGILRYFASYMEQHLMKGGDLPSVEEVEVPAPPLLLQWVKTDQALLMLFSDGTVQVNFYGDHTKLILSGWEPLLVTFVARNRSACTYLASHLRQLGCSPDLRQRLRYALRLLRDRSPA
Sequence of PAK4 (O96013 whole entry): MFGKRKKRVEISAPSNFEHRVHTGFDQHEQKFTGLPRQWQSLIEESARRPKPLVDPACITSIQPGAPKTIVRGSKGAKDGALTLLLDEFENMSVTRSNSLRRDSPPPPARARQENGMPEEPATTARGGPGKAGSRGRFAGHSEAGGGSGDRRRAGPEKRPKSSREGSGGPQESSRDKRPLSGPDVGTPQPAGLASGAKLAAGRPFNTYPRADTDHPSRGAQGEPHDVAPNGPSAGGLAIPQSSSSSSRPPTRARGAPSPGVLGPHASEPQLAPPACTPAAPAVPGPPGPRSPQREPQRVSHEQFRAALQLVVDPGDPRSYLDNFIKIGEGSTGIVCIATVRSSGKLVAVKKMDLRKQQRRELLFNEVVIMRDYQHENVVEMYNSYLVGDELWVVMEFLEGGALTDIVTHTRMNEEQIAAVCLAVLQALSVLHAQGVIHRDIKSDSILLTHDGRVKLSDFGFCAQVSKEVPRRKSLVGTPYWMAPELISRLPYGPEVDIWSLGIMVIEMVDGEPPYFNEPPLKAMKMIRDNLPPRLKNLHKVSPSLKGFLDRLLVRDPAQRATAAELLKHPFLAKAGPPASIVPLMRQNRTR
Sequence of PAK2 (Q13177 whole entry): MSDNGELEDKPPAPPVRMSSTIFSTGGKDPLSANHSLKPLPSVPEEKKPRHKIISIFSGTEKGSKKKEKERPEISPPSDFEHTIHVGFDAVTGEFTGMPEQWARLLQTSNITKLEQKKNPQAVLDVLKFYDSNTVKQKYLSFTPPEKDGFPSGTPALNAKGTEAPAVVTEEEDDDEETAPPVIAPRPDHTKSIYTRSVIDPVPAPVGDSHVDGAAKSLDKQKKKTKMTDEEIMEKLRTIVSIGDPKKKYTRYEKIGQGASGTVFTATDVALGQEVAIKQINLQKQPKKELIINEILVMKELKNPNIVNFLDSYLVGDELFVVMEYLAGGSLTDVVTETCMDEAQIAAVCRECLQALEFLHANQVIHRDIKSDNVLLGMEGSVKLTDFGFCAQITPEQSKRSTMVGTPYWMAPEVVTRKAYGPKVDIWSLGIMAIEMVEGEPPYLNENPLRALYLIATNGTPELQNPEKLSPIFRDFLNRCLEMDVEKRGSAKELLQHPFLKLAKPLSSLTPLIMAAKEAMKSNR
Sequence of JNK3 (P53779 whole entry): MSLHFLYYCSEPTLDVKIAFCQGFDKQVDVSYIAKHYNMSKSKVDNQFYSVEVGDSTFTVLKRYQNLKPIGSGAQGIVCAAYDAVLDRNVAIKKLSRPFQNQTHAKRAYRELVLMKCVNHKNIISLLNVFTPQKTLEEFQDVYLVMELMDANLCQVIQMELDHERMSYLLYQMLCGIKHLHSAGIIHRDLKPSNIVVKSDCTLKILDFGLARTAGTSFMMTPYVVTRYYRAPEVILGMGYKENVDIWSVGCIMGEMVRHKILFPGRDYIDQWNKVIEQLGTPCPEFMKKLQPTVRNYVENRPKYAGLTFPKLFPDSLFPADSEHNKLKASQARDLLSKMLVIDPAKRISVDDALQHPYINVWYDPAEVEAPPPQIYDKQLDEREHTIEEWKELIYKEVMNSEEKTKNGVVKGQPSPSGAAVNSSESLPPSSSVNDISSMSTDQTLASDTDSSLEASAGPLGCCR
Sequence of PLK4 (O00444 whole entry): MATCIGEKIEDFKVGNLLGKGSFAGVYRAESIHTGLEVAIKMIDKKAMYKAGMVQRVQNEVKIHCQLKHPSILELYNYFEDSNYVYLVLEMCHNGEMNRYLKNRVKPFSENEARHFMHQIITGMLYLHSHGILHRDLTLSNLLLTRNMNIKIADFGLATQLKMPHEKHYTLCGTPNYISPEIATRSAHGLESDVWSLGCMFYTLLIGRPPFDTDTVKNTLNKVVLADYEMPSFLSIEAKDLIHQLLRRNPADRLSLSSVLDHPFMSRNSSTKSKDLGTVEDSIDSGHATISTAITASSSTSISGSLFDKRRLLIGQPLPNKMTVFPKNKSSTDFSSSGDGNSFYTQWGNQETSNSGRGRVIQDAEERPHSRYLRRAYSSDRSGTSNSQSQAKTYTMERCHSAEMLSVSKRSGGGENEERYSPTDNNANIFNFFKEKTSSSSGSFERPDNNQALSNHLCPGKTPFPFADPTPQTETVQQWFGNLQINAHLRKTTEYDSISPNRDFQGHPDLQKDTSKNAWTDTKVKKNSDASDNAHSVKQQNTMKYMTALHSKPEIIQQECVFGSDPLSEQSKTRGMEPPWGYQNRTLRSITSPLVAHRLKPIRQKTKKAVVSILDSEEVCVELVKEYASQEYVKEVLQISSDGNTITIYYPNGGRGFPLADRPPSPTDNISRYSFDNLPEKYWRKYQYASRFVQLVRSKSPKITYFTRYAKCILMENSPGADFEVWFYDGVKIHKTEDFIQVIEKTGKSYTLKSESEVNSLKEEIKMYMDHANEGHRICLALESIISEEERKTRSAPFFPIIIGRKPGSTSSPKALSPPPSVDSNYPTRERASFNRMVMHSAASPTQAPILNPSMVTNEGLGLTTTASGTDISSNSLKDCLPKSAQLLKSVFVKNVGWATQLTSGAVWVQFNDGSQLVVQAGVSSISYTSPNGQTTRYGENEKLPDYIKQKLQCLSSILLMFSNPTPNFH
Sequence of MAPKAPK2 (P49137 whole entry): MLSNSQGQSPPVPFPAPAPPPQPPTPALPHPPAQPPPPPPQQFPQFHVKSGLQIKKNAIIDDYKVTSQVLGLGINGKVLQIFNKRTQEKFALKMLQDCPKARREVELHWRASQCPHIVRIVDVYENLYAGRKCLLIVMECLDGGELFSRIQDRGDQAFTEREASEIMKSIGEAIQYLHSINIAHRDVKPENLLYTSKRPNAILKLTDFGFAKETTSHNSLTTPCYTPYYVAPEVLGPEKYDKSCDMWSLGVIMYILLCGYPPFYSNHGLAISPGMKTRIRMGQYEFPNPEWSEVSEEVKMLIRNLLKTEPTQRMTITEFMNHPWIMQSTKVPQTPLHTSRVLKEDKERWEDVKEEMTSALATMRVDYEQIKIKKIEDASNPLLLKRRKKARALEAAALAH
Sequence of MEK1 (Q02750 whole entry): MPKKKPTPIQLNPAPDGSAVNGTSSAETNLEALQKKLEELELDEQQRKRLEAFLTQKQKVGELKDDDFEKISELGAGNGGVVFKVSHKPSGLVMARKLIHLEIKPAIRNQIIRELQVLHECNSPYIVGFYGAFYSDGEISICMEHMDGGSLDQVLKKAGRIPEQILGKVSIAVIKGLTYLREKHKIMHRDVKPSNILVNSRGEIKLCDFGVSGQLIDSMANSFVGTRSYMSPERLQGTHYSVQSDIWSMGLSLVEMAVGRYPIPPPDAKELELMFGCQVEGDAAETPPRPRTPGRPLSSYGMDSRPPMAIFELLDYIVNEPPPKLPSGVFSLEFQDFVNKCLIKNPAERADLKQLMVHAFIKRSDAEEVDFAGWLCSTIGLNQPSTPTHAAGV
Sequence of LKB1 (Q15831 whole entry): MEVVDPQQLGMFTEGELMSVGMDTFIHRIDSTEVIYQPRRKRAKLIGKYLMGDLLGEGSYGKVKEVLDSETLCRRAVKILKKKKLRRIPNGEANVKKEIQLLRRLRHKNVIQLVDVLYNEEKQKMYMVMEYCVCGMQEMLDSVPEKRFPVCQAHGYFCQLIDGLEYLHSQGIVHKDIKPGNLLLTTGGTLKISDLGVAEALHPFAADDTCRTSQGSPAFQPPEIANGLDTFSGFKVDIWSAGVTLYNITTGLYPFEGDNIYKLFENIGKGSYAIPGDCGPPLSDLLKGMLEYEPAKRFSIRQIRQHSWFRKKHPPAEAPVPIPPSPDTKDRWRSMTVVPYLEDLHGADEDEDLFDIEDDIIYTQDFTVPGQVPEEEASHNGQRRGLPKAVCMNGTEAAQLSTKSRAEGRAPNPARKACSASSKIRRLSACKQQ

With `O=C(O)C1CCC2(CC1)CC(Nc1ncnc3[nH]c4c(F)cccc4c13)C2` (centres unmarked) [Compound 74, OC(=O)C1CCC2(CC(C2)NC=3N=CN=C4NC=5C(F)=CC=CC5C34)CC1] the “CSF concentration, Final” value (in vivo; 60 min) was 333 ng/mL and 43.7 ng/mL and 98.0 ng/mL, the “CSF concentration, Final” value (in vivo; 120 min) was 23.6 ng/mL and 138.9 ng/mL and 195.0 ng/mL and the “CSF concentration, Final” value (in vivo; 240 min) was 8.55 ng/mL and 16.8 ng/mL and 52.8 ng/mL. For the same compound, the “CSF concentration, Final” value (in vivo; 360 min) was 72.8 ng/mL and 71.4 ng/mL, the “CSF concentration, Final” value (in vivo; 480 min) was 16.7 ng/mL and 5.28 ng/mL and 0 ng/mL and the “CSF concentration, Final” value (in vivo; 1440 min) was 32.4 ng/mL and 0 ng/mL. The “Brain concentration, Final” value (in vivo; 5 min) was 63.0 ng/g and 61.5 ng/g, the “Brain concentration, Final” value (in vivo; 15 min) was 140 ng/g and 112 ng/g and the “Brain concentration, Final” value (in vivo; 30 min) was 168 ng/g and 291 ng/g. For the same compound, the “Brain concentration, Final” value (in vivo; 60 min) was 124 ng/g and 174 ng/g, the “Brain concentration, Final” value (in vivo; 120 min) was 40.2 ng/g and 117 ng/g and 89.0 ng/g and the “Brain concentration, Final” value (in vivo; 240 min) was 26.0 ng/g and 26.4 ng/g. The “Brain concentration, Final” value (in vivo; 360 min) was 33.7 ng/g and 18.5 ng/g, the “Brain concentration, Final” value (in vivo; 480 min) was 9.82 ng/g and 13.1 ng/g and 57.1 ng/g and the “Plasma concentration, Final” value (in vivo; 5 min) was 937 ng/mL and 1166 ng/mL. The “Plasma concentration, Final” value (in vivo; 15 min) was 5726 ng/mL and 4307 ng/mL, the “Plasma concentration, Final” value (in vivo; 30 min) was 6345 ng/mL and 8215 ng/mL and the “Plasma concentration, Final” value (in vivo; 60 min) was 5152 ng/mL and 8232 ng/mL. The “Plasma concentration, Final” value (in vivo; 120 min) was 1532 ng/mL and 4227 ng/mL and 3400 ng/mL, the “Plasma concentration, Final” value (in vivo; 240 min) was 751 ng/mL and 1518 ng/mL and 1407 ng/mL and the “Plasma concentration, Final” value (in vivo; 360 min) was 1143 ng/mL and 957 ng/mL. The “Plasma concentration, Final” value (in vivo; 480 min) was 516 ng/mL and 763 ng/mL and 2398 ng/mL, the “Plasma concentration, Final” value (in vivo; 1440 min) was 250 ng/mL and 0 ng/mL and the remaining activity at 10 µM (LKB1) was 97%. It also gave a remaining activity at 10 µM (MAPKAPK2) of 98%, a remaining activity at 10 µM (MEK1) of 24% and a remaining activity at 10 µM (MLK1) of 45%. It also gave a remaining activity at 10 µM (PAK1) of 76%, a remaining activity at 10 µM (PAK2) of 66% and a remaining activity at 10 µM (PAK4) of 65%. It also gave a remaining activity at 10 µM (PKAC-alpha) of 99%, a remaining activity at 10 µM (PLK3) of 97% and a remaining activity at 10 µM (PLK4) of 34%. The remaining activity at 10 µM (RAF1) was 98%, the remaining activity at 10 µM (JNK3) was 40% and the remaining binding at 10 µM ([1]; 10000 nM, read-out: Percent Control) was 0.25%. For the same compound, the “Signal (qPCR)” value ([1]; RSK2, [Compound] 0.0001 nM) was 4.94e-6 and 4.75e-6, the “Signal (qPCR)” value ([1]; RSK2, [Compound] 0.01 nM) was 3.91e-6 and 4.73e-6 and the “Signal (qPCR)” value ([1]; RSK2, [Compound] 0.169 nM) was 4.25e-6 and 3.92e-6. The “Signal (qPCR)” value ([1]; RSK2, [Compound] 0.508 nM) was 4.17e-6 and 4.75e-6, the “Signal (qPCR)” value ([1]; RSK2, [Compound] 1.52 nM) was 4.57e-6 and 4.32e-6 and the “Signal (qPCR)” value ([1]; RSK2, [Compound] 4.57 nM) was 4.65e-6 and 4.1e-6. For the same compound, the “Signal (qPCR)” value ([1]; RSK2, [Compound] 13.7 nM) was 3.9e-6 and 3.53e-6, the “Signal (qPCR)” value ([1]; RSK2, [Compound] 41.2 nM) was 3.36e-6 and 3.55e-6 and the “Signal (qPCR)” value ([1]; RSK2, [Compound] 123 nM) was 3.09e-6 and 2.73e-6. For the same compound, the “Signal (qPCR)” value ([1]; RSK2, [Compound] 370 nM) was 2.17e-6 and 2e-6, the “Signal (qPCR)” value ([1]; RSK2, [Compound] 3330 nM) was 5.93e-7 and 5.31e-7 and the “Signal (qPCR)” value ([1]; RSK2, [Compound] 10000 nM) was 2.67e-7 and 3.25e-7. The remaining activity at 10 µM (SNARK) was 54% and the remaining activity at 10 µM (TIE2) was 81%.
